Measurements: patent US20240247080A1, “GLP1/GIP/NPY2 RECEPTOR TRIPLE AGONISTS” (Boehringer Ingelheim International GmbH, priority 2022, published 2024)
Like-named read-outs stand apart in the source and are kept apart here. Starred links: 1 amine or outer side, 2 acyl side, 3 side chain; linkers in the order of their positions; H or OH if unused. Positions of bridges follow the written chain, without caps; N, C: chain ends. Non-standard residues stand in square brackets, D forms with d. Groups on a side chain read outwards from the residue. Chains are numbered I, II in the order given. *: point of attachment. C20 diacid = O=C(O)CCCCCCCCCCCCCCCCCCC(=O)*; C18 diacid = O=C(O)CCCCCCCCCCCCCCCCC(=O)*; γGlu = O=C(O)[C@H](CCC(=O)[*:2])N[*:1]; εLys = N[C@@H](CCCCN[*:1])C(=O)[*:2]; Tle = CC(C)(C)[C@H](N)C(=O)O; AEEA = NCCOCCOCC(=O)O; Aib = CC(C)(N)C(=O)O

Legend:
Assay type in all cases: cell-based
Conditions in all cases: CreLuc reporter gene assay
[1] = molecular target: T1, hNPY2R (Homo sapiens, UniProt P49146); assay: hNPY2R CreLuc reporter gene assay in 0.5% and 100% plasma
T1 construct: expressed in transfected cells; host or cells: HEK-293 cells carrying a CRE-luciferase reporter gene
T1 sequence (P49146 1-381): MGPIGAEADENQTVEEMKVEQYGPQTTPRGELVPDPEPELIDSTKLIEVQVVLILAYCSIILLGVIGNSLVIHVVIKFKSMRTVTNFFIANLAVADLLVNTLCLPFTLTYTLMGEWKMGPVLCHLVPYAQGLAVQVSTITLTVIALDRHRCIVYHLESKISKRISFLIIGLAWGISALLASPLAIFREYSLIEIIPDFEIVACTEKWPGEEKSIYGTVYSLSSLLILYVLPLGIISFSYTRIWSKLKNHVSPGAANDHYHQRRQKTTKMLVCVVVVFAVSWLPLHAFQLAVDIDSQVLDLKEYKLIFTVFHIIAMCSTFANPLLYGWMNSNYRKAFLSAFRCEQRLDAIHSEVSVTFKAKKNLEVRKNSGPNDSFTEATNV
In short: (§1)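 HEK-293 cells co-expressing GLP-1 or NPY2 receptor and CHO cells expressing GIP receptor, each carrying a CRE-driven luciferase reporter, were stimulated with peptides for 4 hours at 37 °C. Luminescence was read after Bright-Glo addition. EC50 came from 8-point, four-decade curves fitted by variable-slope non-linear regression.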

[2] = molecular target: T2, hGIPR (Homo sapiens, UniProt P48546); assay: hGIPR CreLuc reporter gene assay in 0.5% and 100% plasma
T2 construct: expressed in transfected cells; host or cells: CHO cells carrying a CRE-luciferase reporter gene
T2 sequence (P48546 22-466): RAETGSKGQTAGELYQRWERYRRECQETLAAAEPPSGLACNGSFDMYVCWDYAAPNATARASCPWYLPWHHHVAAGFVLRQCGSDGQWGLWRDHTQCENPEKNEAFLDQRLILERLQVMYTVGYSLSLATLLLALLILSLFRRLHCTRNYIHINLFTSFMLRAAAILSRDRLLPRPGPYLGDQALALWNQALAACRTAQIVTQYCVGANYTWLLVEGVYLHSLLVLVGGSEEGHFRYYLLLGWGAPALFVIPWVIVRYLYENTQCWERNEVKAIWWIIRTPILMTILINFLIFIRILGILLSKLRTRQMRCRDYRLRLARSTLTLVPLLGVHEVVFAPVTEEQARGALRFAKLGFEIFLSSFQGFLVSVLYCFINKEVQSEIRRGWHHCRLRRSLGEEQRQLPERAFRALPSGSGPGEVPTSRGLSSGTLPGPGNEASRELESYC
In short: as §1

[3] = molecular target: T3, hGLP1R (Homo sapiens, UniProt P43220); assay: hGLP1R CreLuc reporter gene assay in 0.5% and 100% plasma
T3 construct: expressed in transfected cells; host or cells: HEK-293 cells carrying a CRE-luciferase reporter gene
In short: as §1

[4] = 0.5% human plasma, read-out: hNPY2R 0.5% hP
[5] = 0.5% human plasma, read-out: hGIPR 0.5% hP
[6] = 100% human plasma, read-out: hGIPR 100% hP
[7] = 0.5% human plasma, read-out: hGLP1R 0.5% hP
[8] = 100% human plasma, read-out: hGLP1R 100% hP
[9] = 100% human plasma, read-out: hNPY2R 100% hP

T3 sequence (P43220 24-463): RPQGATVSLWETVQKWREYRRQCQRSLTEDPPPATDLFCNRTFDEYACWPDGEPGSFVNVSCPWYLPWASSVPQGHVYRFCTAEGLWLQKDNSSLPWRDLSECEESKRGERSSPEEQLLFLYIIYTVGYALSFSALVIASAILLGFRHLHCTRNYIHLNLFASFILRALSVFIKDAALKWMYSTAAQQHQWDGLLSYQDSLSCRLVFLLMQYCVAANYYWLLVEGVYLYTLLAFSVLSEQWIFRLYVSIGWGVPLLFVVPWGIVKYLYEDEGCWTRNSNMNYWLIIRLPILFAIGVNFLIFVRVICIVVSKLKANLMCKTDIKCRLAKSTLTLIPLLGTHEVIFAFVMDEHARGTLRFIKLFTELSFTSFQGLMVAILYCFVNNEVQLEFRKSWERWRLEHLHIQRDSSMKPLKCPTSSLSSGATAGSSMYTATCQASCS

| Compound | EC50 [1, 4] [nM] | EC50 [2, 5] [nM] | EC50 [2, 6] [nM] | EC50 [3, 7] [nM] | EC50 [3, 8] [nM] | EC50 [1, 9] [nM] |
| --- | --- | --- | --- | --- | --- | --- |
| H-Y[Aib]EGTFTSDYSI[Aib]LEKQAQ[Aib]AFVEWLIK([εLys-γGlu-γGlu-γGlu-γGlu-γGlu-γGlu-C20 diacid])GGPSSGASLRHYYNWLTRQR[Tle]-NH2 [Compound 191, Y-Aib-E-G-T-F-T-S-D-Y-S-I-Aib-L-E-K-Q-A-Q-Aib-A-F-V-E-W-L-I-K(1,3)-GGPSSGASLRHYYNWLTRQR-Tle-NH2.C20DA-gGlu-gGlu-gGlu-gGlu-gGlu-gGlu-eLys(1,2)] | > 99.9 | 0.23 | 2 | 0.17 |  | > 999 |
| H-Y[Aib]EGTFTSDYSI[Aib]LEKQAQ[Aib]AFVQWLIK([AEEA-AEEA-γGlu-γGlu-γGlu-γGlu-C18 diacid])GGPEEGASLRHYYNWLTRQRY-NH2 [Compound 146, Y-Aib-E-G-T-F-T-S-D-Y-S-I-Aib-L-E-K-Q-A-Q-Aib-A-F-V-Q-W-L-I-K(1,3)-GGPEEGASLRHYYNWLTRQRY-NH2.C18DA-gGlu-gGlu-gGlu-gGlu-OEG-OEG(1,2)] | 14 | 0.77 | 0.73 | 0.14 |  |  |
| H-Y[Aib]EGTFTSDYSI[Aib]LEKQAQ[Aib]AFVEWLIK([εLys-γGlu-γGlu-γGlu-γGlu-γGlu-γGlu-C20 diacid])GGPSSGAS[Aib]RHYYNWLTRQR[dY]-NH2 [Compound 74, Y-Aib-E-G-T-F-T-S-D-Y-S-I-Aib-L-E-K-Q-A-Q-Aib-A-F-V-E-W-L-I-K(1,3)-G-G-P-S-S-G-A-S-Aib-R-H-Y-Y-N-W-L-T-R-Q-R-DTyr-NH2.C20DA-gGlu-gGlu-gGlu-gGlu-gGlu-gGlu-eLys(1,2)] | 53.4 | 0.1 | 0.62 | 0.08 | 1.13 |  |
| I: H-Y[Aib]EGTFTSDYSI[Aib]LEKQAQ[Aib]AFVQWLIKGGPEEGASLRHYYNWLTRQRY-NH2 / II: {C18 diacid}-EEEEE[εLys] (amide I:28-II:C) [Compound 155, Y-Aib-E-G-T-F-T-S-D-Y-S-I-Aib-L-E-K-Q-A-Q-Aib-A-F-V-Q-W-L-I-K(1,3)-GGPEEGASLRHYYNWLTRQRY-NH2.C18DA-E-E-E-E-E-eLys(1,2)] | 17 | 0.14 | 1.43 | 0.15 | 7.18 |  |
| H-Y[Aib]EGTFTSDYSI[Aib]LEKQAQ[Aib]AFVQWLIK([AEEA-AEEA-γGlu-γGlu-γGlu-γGlu-C18 diacid])GGPSEPASLRHYYNWLTRQRY-NH2 [Compound 173, Y-Aib-E-G-T-F-T-S-D-Y-S-I-Aib-L-E-K-Q-A-Q-Aib-A-F-V-Q-W-L-I-K(1,3)-GGPSEPASLRHYYNWLTRQRY-NH2.C18DA-gGlu-gGlu-gGlu-gGlu-OEG-OEG(1,2)] | 12.4 | 0.27 | 0.94 | 0.11 | 3.07 | 24.9 |

The remaining compounds from weak to strong by EC50 [1, 4], led by results:

| EC50 [1, 4] [nM] | EC50 [2, 5] [nM] | EC50 [2, 6] [nM] | EC50 [3, 7] [nM] | EC50 [3, 8] [nM] | EC50 [1, 9] [nM] | Compound |
| --- | --- | --- | --- | --- | --- | --- |
| 19.2 | 0.33 | 1.43 | 0.14 |  |  | H-Y[Aib]EGTFTSDYSI[Aib]LEKQAQ[Aib]AFIEWLIK([AEEA-AEEA-γGlu-γGlu-γGlu-γGlu-C20 diacid])GGPSEGASLRHYYNWLTRQRY-NH2 [Compound 231, Y-Aib-E-G-T-F-T-S-D-Y-S-I-Aib-L-E-K-Q-A-Q-Aib-A-F-I-E-W-L-I-K(1,3)-GGPSEGASLRHYYNWLTRQRY-NH2.C20DA-gGlu-gGlu-gGlu-gGlu-OEG-OEG(1,2)] |
| 18 | 0.1 | 1.17 | 0.26 | 3.11 |  | CC[C@H](C)[C@H](NC(=O)[C@H](CC(C)C)NC(=O)[C@H](Cc1c[nH]c2ccccc12)NC(=O)[C@H](CCC(=O)O)NC(=O)[C@@H](NC(=O)[C@H](Cc1ccccc1)NC(=O)[C@H](C)NC(=O)C(C)(C)NC(=O)[C@H](CCC(N)=O)NC(=O)[C@H](C)NC(=O)[C@H](CCC(N)=O)NC(=O)[C@H](CCCCN)NC(=O)[C@H](CCC(=O)O)NC(=O)[C@H](CC(C)C)NC(=O)C(C)(C)NC(=O)[C@@H](NC(=O)[C@H](CO)NC(=O)[C@H](Cc1ccc(O)cc1)NC(=O)[C@H](CC(=O)O)NC(=O)[C@H](CO)NC(=O)[C@@H](NC(=O)[C@H](Cc1ccccc1)NC(=O)[C@@H](NC(=O)CNC(=O)[C@H](CCC(=O)O)NC(=O)C(C)(C)NC(=O)[C@@H](N)Cc1ccc(O)cc1)[C@@H](C)O)[C@@H](C)O)[C@@H](C)CC)C(C)C)C(=O)N[C@@H](CCCCNC(=O)[C@@H](N)CCCCNC(=O)CC[C@H](NC(=O)CC[C@H](NC(=O)CC[C@H](NC(=O)CC[C@H](NC(=O)CC[C@H](NC(=O)CC[C@H](NC(=O)CCCCCCCCCCCCCCCCCCC(=O)O)C(=O)O)C(=O)O)C(=O)O)C(=O)O)C(=O)O)C(=O)O)C(=O)NCC(=O)NCC(=O)N1CCC[C@H]1C(=O)N[C@@H](CO)C(=O)N[C@@H](CCC(=O)O)C(=O)NCC(=O)N[C@@H](CCC(=O)O)C(=O)N[C@@H](CO)C(=O)N[C@@H](CC(C)C)C(=O)N[C@@H](CCCNC(=N)N)C(=O)N[C@@H](Cc1c[nH]cn1)C(=O)N[C@@H](Cc1ccc(O)cc1)C(=O)N[C@@H](Cc1ccc(O)cc1)C(=O)N[C@@H](CC(N)=O)C(=O)N[C@@H](Cc1c[nH]c2ccccc12)C(=O)N[C@@H](CC(C)C)C(=O)N[C@H](C(=O)N[C@@H](CCCNC(=N)N)C(=O)N[C@@H](CCC(N)=O)C(=O)N[C@@H](CCCNC(=N)N)C(=O)N[C@@H](Cc1ccc(O)cc1)C(N)=O)[C@@H](C)O [Compound 237, Y-Aib-E-G-T-F-T-S-D-Y-S-I-Aib-L-E-K-Q-A-Q-Aib-A-F-V-E-W-L-I-K(1,3)-GGPSEGESLRHYYNWLTRQRY-NH2.C20DA-gGlu-gGlu-gGlu-gGlu-gGlu-gGlu-eLys(1,2)] |
| 16.9 | 0.14 |  | 0.08 | 2.48 |  | CC[C@H](C)[C@H](NC(=O)[C@H](CC(C)C)NC(=O)[C@H](Cc1c[nH]c2ccccc12)NC(=O)[C@H](CCC(N)=O)NC(=O)[C@@H](NC(=O)[C@H](Cc1ccccc1)NC(=O)[C@H](C)NC(=O)C(C)(C)NC(=O)[C@H](CCC(N)=O)NC(=O)[C@H](C)NC(=O)[C@H](CCC(N)=O)NC(=O)[C@H](CCCCN)NC(=O)[C@H](CCC(=O)O)NC(=O)[C@H](CC(C)C)NC(=O)C(C)(C)NC(=O)[C@@H](NC(=O)[C@H](CO)NC(=O)[C@H](Cc1ccc(O)cc1)NC(=O)[C@H](CC(=O)O)NC(=O)[C@H](CO)NC(=O)[C@@H](NC(=O)[C@H](Cc1ccccc1)NC(=O)[C@@H](NC(=O)CNC(=O)[C@H](CCC(=O)O)NC(=O)C(C)(C)NC(=O)[C@@H](N)Cc1ccc(O)cc1)[C@@H](C)O)[C@@H](C)O)[C@@H](C)CC)C(C)C)C(=O)N[C@@H](CCCCNC(=O)[C@H](CCC(=O)O)NC(=O)[C@H](CCC(=O)O)NC(=O)[C@H](CCC(=O)O)NC(=O)[C@H](CCC(=O)O)NC(=O)[C@H](CCC(=O)O)NC(=O)CCCCCCCCCCCCCCCCC(=O)O)C(=O)NCC(=O)NCC(=O)N1CCC[C@H]1C(=O)N[C@@H](CO)C(=O)N[C@@H](CCC(=O)O)C(=O)NCC(=O)N[C@@H](C)C(=O)N[C@@H](CO)C(=O)N[C@@H](CC(C)C)C(=O)N[C@@H](CCCNC(=N)N)C(=O)N[C@@H](Cc1c[nH]cn1)C(=O)N[C@@H](Cc1ccc(O)cc1)C(=O)N[C@@H](Cc1ccc(O)cc1)C(=O)N[C@@H](CC(N)=O)C(=O)N[C@@H](Cc1c[nH]c2ccccc12)C(=O)N[C@@H](CC(C)C)C(=O)N[C@H](C(=O)N[C@@H](CCCNC(=N)N)C(=O)N[C@@H](CCC(N)=O)C(=O)N[C@@H](CCCNC(=N)N)C(=O)N[C@@H](Cc1ccc(O)cc1)C(N)=O)[C@@H](C)O [Compound 257, Y-Aib-E-G-T-F-T-S-D-Y-S-I-Aib-L-E-K-Q-A-Q-Aib-A-F-V-Q-W-L-I-K(1,3)-GGPSEGASLRHYYNWLTRQRY-NH2.C18DA-E-E-E-E-E(1,2)] |
